# Experimental data taken from patent publication US11524082B2, “FBSA-based therapeutic and radioimaging conjugates targeting carbonic anhydrase positive cancers” (priority 2017, dated 2022).
# Assays:
# [1] = tested on: A549 xenografts; test: In vivo efficacy of Conjugate 14 in A549 xenografts; design: species or system mice; conditions: 1.25 umole/kg TIW for three weeks, FIG. 17
# Protocol: (§1) Athymic nu/nu mice were purchased from Harlan Laboratories (ENVIGO), housed in a sterile environment on a standard 12 hour light-dark cycle and maintained on normal rodent chow. All animal procedures were approved by the PURDUE Animal Care and Use Committee in accordance with National Institutes of Health guidelines.
# (§2) Cells, HT-29 cells (4.25×10^6) were subcutaneously injected into the shoulders of 5-6 week old female nu/nu mice. Tumors were measured in two perpendicular directions thrice weekly with vernier calipers and their volumes were calculated as 0.5×L×W^2, where L is the longest axis (in millimeters), and W is the axis perpendicular to L (in millimeters). Dosing of Conjugate 12 was initiated when the subcutaneous tumors reached ˜100-275 mm^3 in volume. Dosing solutions were prepared in saline and filtered through a 0.22 μm filter. Solutions were administered via tail vein injection or intraperitoneally. Each mouse received 2 μmol/kg Conjugate 12 per injection. Injections were given every two days and the mice were weighed concurrently.
# Similar experiments were performed using Conjugate 14 with A549 cells instead of HT-29 cells (FIGS. 17 and 18).
# [2] = tested on: HT-29 xenografts; test: In vivo efficacy of tubulysin conjugates in HT-29 xenograft tumors; design: species or system mice
# Protocol: as §1
# In Vivo Efficacy of Tubulysin Conjugate 12 in HT29 Xenograft Tumors.
# as §2, with “Each mouse received 2 μmol/kg Conjugate 12 per injection.” left out, “concurrently. […]” for “concurrently.”
# [3] = tested on: A549 xenografts; design: species or system mice; conditions: in vivo
# Protocol: (§3) Whole-Body Imaging and Biodistribution of Radiolabeled 17 in Mouse Xenograft Models
# (§4) SKRC52, HT29, or A549 cells (˜3×10^6 cells per mouse) were injected subcutaneously into the shoulders of female athymic nu/nu mice. Growth of the tumors was measured in two perpendicular directions and the volumes of the tumors were calculated as 0.5×L×W^2 (L=longest axis and W=axis perpendicular to L in millimeters). Once tumors reached a minimum of 500 mm^3 in volume, animals were injected with radiolabeled Conjugate 17 (250 μCi) in PBS (100 μL, pH 7.4) via tail vein injection. To obtain whole-body images, mice were anesthetized with isoflurane and images were acquired with a Kodak Imaging Station (In-Vivo FX, Eastman Kodak Company) in combination with CCD camera and Kodak molecular imaging software (version 4.0) with the kidneys shielded. Radioimages were acquired using the following parameters: radio isotope illumination source, 3 min acquisition time, f-stop=4, focal plane=5, FOV=160, binning=8. White light images were acquired using the following parameters: white light transillumination illumination source, 0.175 s acquisition time, f-stop=16, focal plane=5, FOV=160, and no binning. After acquiring the whole-body imaging, the mice were sacrificed with CO2 asphyxiation and, following necropsy, the tissues were placed into preweighed γ-counter tubes. The radioactivity of the tissues and a fraction of the injected dose was measured in a γ-counter (Packard, Packard Instrument Company). Count per minute (CPM) values were corrected for decay times, and the results were calculated as percent of the injected dose per gram (% ID/g) of wet tissue.
# 250 μCi of radiolabeled Conjugate 17 was injected into the tail vein of mice bearing xenografts derived from the A549 cell line. At various time points shown in Table 3, the tissues were removed from the mice (n=1 per time point), weighed, and the radioactivity was quantified on a gamma counter. Because copper-64 emits gamma radiation at 511 keV in 36% abundance, it is possible to use gamma detection methods.
# [4] = tested on: HT29 xenografts; design: species or system mice; conditions: in vivo
# Protocol: as §3, §4
# [5] = tested on: SKRC52 xenografts; design: species or system mice; conditions: mouse, in vivo
# Protocol: as §3, §4
# [6] = target: T1, CAIX (Homo sapiens, UniProt Q16790); test: Binding affinity of CAIX FITC conjugates by flow cytometry in A549 cells; design: expressed in transfected cells; conditions: FIG. 7
# Protocol: (§5) General Procedure for Binding Affinity Determination of CAIX FITC Conjugates
# (§6) HEK293 transfected with CAIX, SKRC52, HT29, or A549 cells (0.25×10^6) were placed into 1.5 ml centrifuge tubes with 0.3 mL of fresh DMEM medium containing increasing concentrations of CAIX FITC conjugates in the presence or absence of 100-fold excess CAIX inhibitor (Compound 3, 3-((2-(cyclooctylamino)-3,5,6-trifluoro-4-sulfamoylphenyl)sulfonyl)propanoic acid. After incubating for 1 h at 25° C., cells were rinsed twice with 1 mL of medium. The cells were transferred into a 96-well plate and the mean florescence intensity (MFI) was read using flow cytometry (BD Accuri C6, BD Biosciences). Apparent KD was calculated by plotting MFI versus the concentration of the FITC conjugates using GraphPad Prism 4. For hypoxia experiments, cells were incubated under an atmosphere containing 1% oxygen, 5% carbon dioxide, and 94% nitrogen for 24-48 hours in a hypoxia chamber.
# [7] = target: T1, CAIX; test: Binding affinity of CAIX FITC conjugates by flow cytometry in HT-29 cells; design: expressed in transfected cells; conditions: FIG. 4
# Protocol: as §5, §6
# [8] = tested on: SKRC52 cells; test: Fluorescent confocal microscopy of FBSA-PEG2-FITC conjugate in SKRC52 cells; format: cell-based, Human; conditions: 25 nM conjugate, 1 hour at 37° C.; competition with 100-fold excess Compound 3; FIG. 1
# Protocol: Fluorescent Microscopy of FBSA-PEG2-FITC Conjugate, Conjugate 5.
# Metastatic Human Renal Cell Carcinoma (SKRC52) cells (10^5) were seeded into chambered coverglass plates and allowed to grow to confluence over 24 hours (hr). Spent medium was replaced with 0.5 mL of fresh medium containing 10% fetal bovine serum albumin and 25 nM concentration of the FITC conjugate, Conjugate 5, alone or the dye conjugate plus 100-fold excess CAIX inhibitor (Compound 3, 3-((2-(cyclooctylamino)-3,5,6-trifluoro-4-sulfamoylphenyl)sulfonyl)propanoic acid). After incubation for 1 hour at 37° C., cells were rinsed twice with 1 mL of media to remove unbound fluorescence and 0.5 ml of fresh incubation medium was added to the wells. Images were acquired using a confocal microscopy (FV 1000, Olympus).
# [9] = target: T1, CAIX; test: Binding affinity of CAIX FITC conjugates by flow cytometry in HEK293 transfected with CAIX; design: expressed in transfected cells; host or cells: HEK293
# Text: as §5
# [10] = target: T1, CAIX; test: Binding affinity of CAIX FITC conjugates by flow cytometry in SKRC52 cells; design: endogenous in cells; host or cells: SKRC52
# Text: as §5
# [11] = target: T1, CAIX; test: In vitro binding affinity of radiolabeled Conjugate 17 in A549 cells (gamma counting); design: expressed in transfected cells; conditions: 64Cu-radiolabeled, 1 h at 25° C., FIG. 10
# Protocol: (§7) In Vitro Binding Affinity of Radiolabeled Conjugate 17
# (§8) SKRC52, HT29, A549 cells (˜0.25×10^6) were seeded in a 24-well plate and allowed to grow overnight. Fresh medium containing increasing concentrations of radiolabeled Conjugate 17, as prepared in Example 17, in the presence or absence of 100-fold excess FBSA competition compound was added. All concentrations were examined in duplicate or triplicate. After incubating for 1 h at 25° C., cells were washed with PBS (3×0.5 mL). To each well was added 0.5 M NaOH. After 10 min, 0.45 mL of the NaOH was removed and the radioactivity was measured with a γ-counter (Packard, Packard Instrument Company). The apparent binding affinity was calculated by plotting the bound radioactivity versus the concentration of the radiolabeled conjugate with GraphPad Prism 4.
# [12] = target: T1, CAIX; test: In vitro binding affinity of radiolabeled Conjugate 17 in SKRC52 cells (gamma counting); design: endogenous in cells; host or cells: SKRC52
# Protocol: as §7, §8
smiles,measurement,setting,value
CCCC(=O)OCN(C(=O)[C@@H](NC(=O)C1CCCCN1C)[C@@H](C)CC)[C@H](C[C@@H](OC(C)=O)c1nc(C(=O)N[C@@H](Cc2ccc(O)cc2)C[C@H](C)C(=O)NNC(=O)OCCSSC[C@H](NC(=O)[C@H](CC(=O)O)NC(=O)[C@@H](N)CNC(=O)C(CC(=O)O)NC(=O)C(CCCNC(=N)N)NC(=O)C(CC(=O)O)NC(=O)CCOCCOCCNC(=O)CCS(=O)(=O)c2c(F)c(F)c(S(N)(=O)=O)c(F)c2NC2CCCCCCC2)C(=O)O)cs1)C(C)C (stereo partly shown) [Conjugate 14],tumor response,[1],stable tumor regression and stable disease until treatment cessation
same,"whole body mass, other doses","[2]; HT-29 xenograft mice, 1.5, 1, 0.5, 0.25 μmole/kg, n=1 each, FIG. 14",acceptable body mass profiles
same,"whole body mass, highest dose","[2]; HT-29 xenograft mice, highest dose (2 μmole/kg), n=1, FIG. 14",loss of body mass
same,"tumor reemergence, starting day","[2]; HT-29 xenografts, 1 umole/kg, n=1, FIG. 13",16 days
same,tumor response,"[2]; HT-29 xenografts, 1.25 umole/kg TIW for three weeks, n=5, FIG. 15",stable tumor regression and stable disease until treatment cessation
same,"tumor response, dose escalation","[2]; HT-29 xenografts, doses 2, 1.5, and 1 umole/kg, n=1 for each dose, FIG. 13",shrank tumors
"NS(=O)(=O)c1c(F)c(F)c(S(=O)(=O)CCC(=O)NCCOCCOCCC(=O)NCCNC(=O)CCC(C(=O)O)N2CCN(CC(=O)O)CCN(CC(=O)O)CC2)c(NC2CCCCCCC2)c1F (stereo not shown) (64Cu complex, metal not drawn) [radiolabeled Conjugate 17]","radiation count at the tumor site, competition mouse versus non-competition mouse",[3],much lower radiation count at the tumor site
same,"tumor uptake in whole-body image, targeted versus competition mouse",[3],much higher tumor uptake than that of the competition mouse
same,time of the highest tumor-to-tissue ratio,[3]; mouse,nine
same,"tumor uptake in whole-body image, targeted versus competition mouse",[4],also demonstrated in mice bearing HT29 xenografts
same,tumor to tissue background ratios,[4]; mouse,not very good
same,"radioactivity at the tumor, with competition control",[5],the radioactivity at the tumor was receptor mediated
same,"uptake of removed tumors, targeted versus competition",[5],higher tumor uptake in the targeted mouse versus the competition mice
"NS(=O)(=O)c1c(F)c(F)c(S(=O)(=O)CCC(=O)NCCOCCOCCC(=O)NC(CSC2CC(=O)N(c3ccc(-c4c5ccc(=O)cc-5oc5cc(O)ccc45)c(C(=O)O)c3)C2=O)C(=O)O)c(NC2CCCCCCC2)c1F (stereo not shown) [Conjugate 5, 2-(((1-(3-carboxy-4-(6-hydroxy-3-oxo-3H-xanthen-9-yl)phenyl)-2,5-dioxopyrrolidin-3-yl)thio)methyl)-16-((2-(cyclooctylamino)-3,5,6-trifluoro-4-sulfamoylphenyl)sulfonyl)-4,14-dioxo-7,10-dioxa-3,13-diazahexadecanoic acid]",Kd,[6],6.04 nM
same,binding with competition by unconjugated inhibitor,[7]; 100-fold excess unconjugated inhibitor (Compound 3),bound the cells and competed in the presence of 100-fold excess unconjugated inhibitor
same,Kd,[7],4.55 nM
same,"cell binding by confocal microscopy, alone and with excess CAIX inhibitor",[8],bound the cells and were competed in the presence of excess unconjugated inhibitor
same,Kd,"[9]; HEK293-CA9 cells, FIG. 2 / FIG. 5, apparent KD from MFI, 1 h at 25° C., read-out: KD",17.9 nM
same,Kd,"[10]; SKRC52 cells under hypoxia (1% oxygen, 24-48 hours), FIG. 6, read-out: KD, Hypoxia SKRC52",4.72 nM
same,Kd,"[10]; SKRC52 cells without hypoxia, FIG. 6, read-out: binding affinity, Normoxia SKRC52",4.57 nM
same,Kd,"[10]; SKRC52 cells, FIG. 3, apparent KD from MFI, 1 h at 25° C., read-out: KD",1.28 nM
NS(=O)(=O)c1c(F)c(F)c(S(=O)(=O)CCC(=O)NCCOCCOCCC(=O)NCCNC(=O)CCC(C(=O)O)N2CCN(CC(=O)O)CCN(CC(=O)O)CC2)c(NC2CCCCCCC2)c1F (stereo not shown) [radiolabeled Conjugate 17],Kd,[11],6.04 nM
same,bound radioactivity in competition controls,"[12]; SKRC52 and A549 cells, 100-fold excess of unlabeled FBSA-COOH",significantly less bound radioactivity
same,concentration reaching saturation of binding,"[12]; SKRC52 and A549 cells, FIGS. 9 and 10",approximately 75 nM
same,Kd,"[12]; SKRC52 cells, 64Cu-radiolabeled, 1 h at 25° C., FIG. 9",5.87 nM
"N[C@@H](CNC(=O)CCOCCOCCOCCOCCNC(=O)CCS(=O)(=O)c1c(F)c(F)c(S(N)(=O)=O)c(F)c1NC1CCCCCCC1)C(=O)N[C@@H](CC(=O)O)C(=O)N[C@@H](CSC1CC(=O)N(c2ccc(-c3c4ccc(=O)cc-4oc4cc(O)ccc34)c(C(=O)O)c2)C1=O)C(=O)O (stereo partly drawn) [Conjugate 7, 5-(3-(((2R,5S,8S)-8-amino-2-carboxy-5-(carboxymethyl)-29-((2-(cyclooctylamino)-3,5,6-trifluoro-4-sulfamoylphenyl)sulfonyl)-4,7,11,27-tetraoxo-14,17,20,23-tetraoxa-3,6,10,26-tetraazanonacosyl)thio)-2,5-dioxopyrrolidin-1-yl)-2-(6-hydroxy-3-oxo-3H-xanthen-9-yl)benzoic acid]",Kd,[9],55.2 nM
same,binding with competition by unconjugated inhibitor,"[9]; HEK293-CA9 cells, 100-fold excess unconjugated inhibitor (Compound 3), FIG. 5",bound the cells and competed in the presence of 100-fold excess unconjugated inhibitor
same,Kd,[10],4.57 nM
